Patent US20190225650A1, “PEPTIDOMIMETIC MACROCYCLES AND USE THEREOF IN REGULATING HIF1ALPHA” (AILERON THERAPEUTICS, INC., priority 2013, published 2019)
Bridge positions count the residues as written; N and C are the ends. Square brackets hold non-standard residues; d marks the D form. Peptide text beside a SMILES is read from it. S5 = C=CCCC[C@](C)(N)C(=O)O; Nle = CCCC[C@H](N)C(=O)O

Target: T1, flag-tagged HIF1α (AA 786-826) / His6-tagged p300 (AA 323-423) complex (Homo sapiens, UniProt Q09472)
T1 construct: His6-tagged p300 (AA 323-423); made in house; host or cells: E. coli (pETDuet vector)
Assay: HIF1α p300 displacement assay (TR FRET, +CHAPS)
Format: binding
Details: read-out: IC50 (nM) (HIF1α_p300 Displacement + CHAPS)
Procedure: The ability of peptides to displace HIF1α c-terminal trans-activation domain from p300-CH was measured by a TR FRET assay. A complex of flag-tagged HIF1α (AA 786-826) and His6-tagged p300 (AA 323-423) was co-expressed using pETDuet vector (EMDMillipore, Bellrica Mass.) and purified from E. coli in the presence of 0.1 mM ZnSO4. The complex was diluted to 300 nM final in complete assay media and competitor peptides were added. The complete assay media contained 150 mM NaCl (Sigma +S5150 or equivalent), 20 mM HEPES pH 7.4 (Boston Bioproducts, Ashland, Mass.; #BB-2076), 7.5 mM CHAPS (Thermo #28300 or equivalent), and 1 mM DTT. Protein and peptide were incubated at room temperature for 1 hour before the addition of anti-Flag-K and anti-6×HIS-D2 (CisBio, Bedford Mass.) HTRF reconstitution buffer (50 mM Phosphate pH 7, 0.8 Potassium Flouride, BSA 0.2%)^1 to a final concentration of 0.5 μM and 4 nM respectively. […] The reaction was read on a TECAN F500 plate reader with settings recommended by CisBio. The ratio of donor to acceptor fluorescence was calculated. The resulting data was analyzed with Graphpad Prism 5.0. IC50 values were calculated for both proteins using the One Site Fit-LogIC50 equation and presented in the column “IC50 (nM) (HIF1α_p300 Displacement+CHAPS)” of Table 6. ^1 Cisbio USA, Bedford, Mass.; 61HISDLB (lot 007A), 61FG2KLB (024A), HTRF Buffer (62RB3RDF)

CCCC[C@H](NC(=O)[C@H](C)NC(=O)[C@@H](NC(=O)[C@@H](NC(=O)[C@H](CC(C)C)NC(=O)[C@]1(C)CCCC=CCCC[C@](C)(NC(=O)[C@H](CCC(=O)O)NC(=O)[C@H](CC(=O)O)NC(=O)[C@@H](NC(=O)[C@H](Cc2ccccc2)NC(C)=O)[C@@H](C)CC)C(=O)N[C@@H](C(C)C)C(=O)N[C@@H](CC(C)C)C(=O)N[C@@H](CCCC)C(=O)N1)C(C)C)[C@@H](C)CC)C(=O)N[C@@H](C)C(=O)N[C@@H](CC(C)C)C(=O)N[C@@H](CO)C(=O)N[C@@H](CO)C(=O)N[C@H](C(N)=O)[C@@H](C)CC [SP-129] (Ac-FIDE[S5]VL[Nle][S5]LVIA[Nle]ALSSI-NH2; staple 5-9)
IC50: > 700 nM
